# From patent US20190136321A1, “USE OF TRANSLATIONAL PROFILING TO IDENTIFY TARGET MOLECULES FOR THERAPEUTIC TREATMENT” (The Regents of The University of California, priority 2013, published 2019)
# Read-outs that look alike come from different tables or passages of the source.
# Key:
# V600E-BRAF tumor cells = conditions: cited from earlier work
# PC3 cells = assay: Ribosome profiling and RNA-seq of PC3 cells (translational efficiency, mRNA abundance); format: cell-based, human;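 also: mRNA is RNA-seq average read density per codon over the coding sequence, translational efficiency is ribosome footprint over RNA-seq density, scaled so the median gene equals 1.0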
# Description: Given the critical role for mTOR in prostate cancer, PC3 human prostate cancer cells, in which mTOR is constitutively hyperactivated, were used to delineate translationally controlled gene expression networks upon complete or partial mTOR inhibition. Ribosome profiling was optimized to assess quantitatively ribosome occupancy genome-wide in cancer cells.
# Cells were subsequently treated with cycloheximide (100 μg ml^−1) and detergent lysis was performed in the dish. The lysate was treated with DNase and clarified, and a sample was taken for RNA-seq analysis. Lysates were subjected to ribosome footprinting by nuclease treatment. Ribosome-protected fragments were purified, and deep sequencing libraries were generated from these fragments, as well as from poly(A) mRNA purified from non-nuclease-treated lysates.
# Ribosome footprint and RNA-seq sequencing reads were aligned against a library of transcripts from the UCSC Known Genes database GRCh37/hg19. The first 25 nucleotides of each read were aligned using Bowtie and this initial alignment was then extended to encompass the full fragment-derived portion of the sequencing read while excluding the linker sequence. Read density profiles were then constructed for the canonical transcript of each gene, using only reads with 0 or 1 total mismatches between the read sequence and the reference sequence, comprised of the transcript fragment followed by the linker sequence. Footprint reads were assigned to an A site nucleotide at position +15 to +17 of the alignment, based on the total fragment length; mRNA reads were assigned to the first nucleotide of the alignment. The average read density per codon was then computed for the coding sequence of each transcript, excluding the first 15 and last 5 codons, which can display atypical ribosome accumulation.
# Average read density was used as a measure of mRNA abundance (RNA-seq reads) and of protein synthesis (ribosome profiling reads). For most analyses, genes were filtered to require at least 256 reads in the relevant RNA-seq samples. Translational efficiency was computed as the ratio of ribosome footprint read density to RNA-seq read density, scaled to normalize the translational efficiency of the median gene to 1.0 after excluding regulated genes (log2 fold-change ±1.5 after normalizing for the all-gene median). Changes in protein synthesis, mRNA abundance and translational efficiency were similarly computed as the ratio of read densities between different samples, normalized to give the median gene a ratio of 1.0. This normalization corrects for differences in the absolute number of sequencing reads obtained for different libraries.
compound,measurement,setting,value
O=C(NOC[C@H](O)CO)c1ccc(F)c(F)c1Nc1ccc(I)cc1F [PD0325901],PNAS rna,V600E-BRAF tumor cells; gene ALF/GTF2A1L,2.7 log2 MEKi/DMSO
same,PNAS rna,V600E-BRAF tumor cells; gene ARID5A,−1.7 log2 MEKi/DMSO
same,PNAS rna,V600E-BRAF tumor cells; gene B4GALT6,−1.7 log2 MEKi/DMSO
same,PNAS rna,V600E-BRAF tumor cells; gene BXDC2/BRIX1,−1.2 log2 MEKi/DMSO
same,PNAS rna,V600E-BRAF tumor cells; gene BYSL,−1.2 log2 MEKi/DMSO
same,PNAS rna,V600E-BRAF tumor cells; gene CCND1,−2.2 log2 MEKi/DMSO
same,PNAS rna,V600E-BRAF tumor cells; gene CD3EAP,−1.4 log2 MEKi/DMSO
same,PNAS rna,V600E-BRAF tumor cells; gene CHSY1,−1.3 log2 MEKi/DMSO
same,PNAS rna,V600E-BRAF tumor cells; gene DDX21,−1.1 log2 MEKi/DMSO
same,PNAS rna,V600E-BRAF tumor cells; gene DUSP4,−2.2 log2 MEKi/DMSO
same,PNAS rna,V600E-BRAF tumor cells; gene DUSP6,−2.6 log2 MEKi/DMSO
same,PNAS rna,V600E-BRAF tumor cells; gene EGR1,−2.1 log2 MEKi/DMSO
same,PNAS rna,V600E-BRAF tumor cells; gene ELOVL6,−1.5 log2 MEKi/DMSO
same,PNAS rna,V600E-BRAF tumor cells; gene ETV1,−2.6 log2 MEKi/DMSO
same,PNAS rna,V600E-BRAF tumor cells; gene ETV4,−2.2 log2 MEKi/DMSO
same,PNAS rna,V600E-BRAF tumor cells; gene ETV5,−1.7 log2 MEKi/DMSO
same,PNAS rna,V600E-BRAF tumor cells; gene FLJ10534/TSR1,−1.1 log2 MEKi/DMSO
same,PNAS rna,V600E-BRAF tumor cells; gene FOS,−3.4 log2 MEKi/DMSO
same,PNAS rna,V600E-BRAF tumor cells; gene FOSL1,−4.2 log2 MEKi/DMSO
same,PNAS rna,V600E-BRAF tumor cells; gene GEMIN4,−1.2 log2 MEKi/DMSO
same,PNAS rna,V600E-BRAF tumor cells; gene GNL3,−1.0 log2 MEKi/DMSO
same,PNAS rna,V600E-BRAF tumor cells; gene GPR3,−2.1 log2 MEKi/DMSO
same,PNAS rna,V600E-BRAF tumor cells; gene GTPBP4,−1.1 log2 MEKi/DMSO
same,PNAS rna,V600E-BRAF tumor cells; gene HMGA2,−1.6 log2 MEKi/DMSO
same,PNAS rna,V600E-BRAF tumor cells; gene HSPC111/NOP16,−1.3 log2 MEKi/DMSO
same,PNAS rna,V600E-BRAF tumor cells; gene HYDIN,2.1 log2 MEKi/DMSO
same,PNAS rna,V600E-BRAF tumor cells; gene IER3,−3.3 log2 MEKi/DMSO
same,PNAS rna,V600E-BRAF tumor cells; gene IL8,−2.5 log2 MEKi/DMSO
same,PNAS rna,V600E-BRAF tumor cells; gene KIR3DL2,1.7 log2 MEKi/DMSO
same,PNAS rna,V600E-BRAF tumor cells; gene LIF,−3.2 log2 MEKi/DMSO
same,PNAS rna,V600E-BRAF tumor cells; gene LNK/SH2B3,−2.0 log2 MEKi/DMSO
same,PNAS rna,V600E-BRAF tumor cells; gene MAFF,−2.7 log2 MEKi/DMSO
same,PNAS rna,V600E-BRAF tumor cells; gene MAP2K3,−1.5 log2 MEKi/DMSO
same,PNAS rna,V600E-BRAF tumor cells; gene MYC,−2.4 log2 MEKi/DMSO
same,PNAS rna,V600E-BRAF tumor cells; gene PHLDA2,−2.2 log2 MEKi/DMSO
same,PNAS rna,V600E-BRAF tumor cells; gene PLK3,−2.3 log2 MEKi/DMSO
same,PNAS rna,V600E-BRAF tumor cells; gene POLR1C,−1.0 log2 MEKi/DMSO
same,PNAS rna,V600E-BRAF tumor cells; gene POLR3G,−1.0 log2 MEKi/DMSO
same,PNAS rna,V600E-BRAF tumor cells; gene PPAN,−1.2 log2 MEKi/DMSO
same,PNAS rna,V600E-BRAF tumor cells; gene PPAT,−1.1 log2 MEKi/DMSO
same,PNAS rna,V600E-BRAF tumor cells; gene PYCRL,−2.6 log2 MEKi/DMSO
same,PNAS rna,V600E-BRAF tumor cells; gene RRS1,−1.8 log2 MEKi/DMSO
same,PNAS rna,V600E-BRAF tumor cells; gene SEMA6A,2.1 log2 MEKi/DMSO
same,PNAS rna,V600E-BRAF tumor cells; gene SLC1A5,−1.2 log2 MEKi/DMSO
same,PNAS rna,V600E-BRAF tumor cells; gene SLC4A7,−1.6 log2 MEKi/DMSO
same,PNAS rna,V600E-BRAF tumor cells; gene SPRED2,−1.0 log2 MEKi/DMSO
same,PNAS rna,V600E-BRAF tumor cells; gene SPRY2,−4.0 log2 MEKi/DMSO
same,PNAS rna,V600E-BRAF tumor cells; gene SPRY4,−2.6 log2 MEKi/DMSO
same,PNAS rna,V600E-BRAF tumor cells; gene TNC,−2.5 log2 MEKi/DMSO
same,PNAS rna,V600E-BRAF tumor cells; gene TNFRSF12A,−1.5 log2 MEKi/DMSO
same,PNAS rna,V600E-BRAF tumor cells; gene WDR3,−1.1 log2 MEKi/DMSO
same,PNAS rna,V600E-BRAF tumor cells; gene YRDC,−1.2 log2 MEKi/DMSO
CO[C@H]1C[C@@H]2CC[C@@H](C)[C@@](O)(O2)C(=O)C(=O)N2CCCC[C@H]2C(=O)O[C@H]([C@H](C)C[C@@H]2CC[C@@H](O)[C@H](OC)C2)CC(=O)[C@H](C)/C=C(\C)[C@@H](O)[C@@H](OC)C(=O)[C@H](C)C[C@H](C)/C=C/C=C/C=C/1C [rapamycin],TrlEff,PC3 cells; gene ACTG1,−0.07
same,mRNA,PC3 cells; gene ACTG1,0.02
same,mRNA,PC3 cells; gene AGRN,0.01
same,mRNA,PC3 cells; gene AHCY,0.20
same,mRNA,PC3 cells; gene ALKBH7,0.06
same,TrlEff,PC3 cells; gene AP2A1,−0.04
same,mRNA,PC3 cells; gene AP2A1,0.09
same,TrlEff,PC3 cells; gene ARD1A,0.01
same,mRNA,PC3 cells; gene ARD1A,−0.04
same,TrlEff,PC3 cells; gene C21orf66,−0.09
same,mRNA,PC3 cells; gene C21orf66,−0.30
same,TrlEff,PC3 cells; gene CIRBP,0.10
same,mRNA,PC3 cells; gene CLPTM1,0.07
same,mRNA,PC3 cells; gene COL6A2,−0.08
same,mRNA,PC3 cells; gene ECSIT,−0.04
same,TrlEff,PC3 cells; gene EEF1A2,−0.03
same,mRNA,PC3 cells; gene EEF1A2,0.03
same,TrlEff,PC3 cells; gene EVPL,0.30
same,mRNA,PC3 cells; gene EVPL,−0.08
same,mRNA,PC3 cells; gene FAM128B,0.06
same,mRNA,PC3 cells; gene IPO7,0.20
same,TrlEff,PC3 cells; gene MTA1,−0.05
same,mRNA,PC3 cells; gene MTA1,0.00
same,mRNA,PC3 cells; gene NCLN,−0.05
same,TrlEff,PC3 cells; gene PABPC4,−0.80
same,TrlEff,PC3 cells; gene PACS1,0.04
same,mRNA,PC3 cells; gene PACS1,0.07
same,TrlEff,PC3 cells; gene PGLS,0.20
same,mRNA,PC3 cells; gene PGLS,0.03
same,mRNA,PC3 cells; gene PGM1,0.40
same,mRNA,PC3 cells; gene RABGGTB,−0.20
same,mRNA,PC3 cells; gene RPL6,0.09
same,TrlEff,PC3 cells; gene RPL8,−0.40
same,TrlEff,PC3 cells; gene RPL9,−1.00
same,mRNA,PC3 cells; gene RPL10,0.09
same,mRNA,PC3 cells; gene RPL11,0.09
same,mRNA,PC3 cells; gene RPL12,0.07
same,mRNA,PC3 cells; gene RPL14,0.07
same,mRNA,PC3 cells; gene RPL17,0.05
same,mRNA,PC3 cells; gene RPL18,0.08
same,mRNA,PC3 cells; gene RPL22,0.08
same,mRNA,PC3 cells; gene RPL23,0.09
same,mRNA,PC3 cells; gene RPL27,0.05
same,mRNA,PC3 cells; gene RPL27A,0.06
same,TrlEff,PC3 cells; gene RPL29,−0.50
same,mRNA,PC3 cells; gene RPL29,0.10
same,mRNA,PC3 cells; gene RPL31,−0.02
same,mRNA,PC3 cells; gene RPL36,0.09
same,mRNA,PC3 cells; gene RPL37A,0.08
same,mRNA,PC3 cells; gene RPL41,0.04
same,mRNA,PC3 cells; gene RPS2,0.07
same,mRNA,PC3 cells; gene RPS8,0.09
same,TrlEff,PC3 cells; gene RPS9,−0.60
same,mRNA,PC3 cells; gene RPS9,0.10
same,mRNA,PC3 cells; gene RPS13,0.07
same,TrlEff,PC3 cells; gene RPS14,−0.60
same,mRNA,PC3 cells; gene RPS14,0.10
same,TrlEff,PC3 cells; gene RPS15,0.03
same,mRNA,PC3 cells; gene RPS15,−0.01
same,mRNA,PC3 cells; gene RPS15A,0.07
same,TrlEff,PC3 cells; gene RPS21,−0.60
same,mRNA,PC3 cells; gene RPS21,−0.01
same,mRNA,PC3 cells; gene RPS25,0.04
same,mRNA,PC3 cells; gene RPS27,0.10
same,TrlEff,PC3 cells; gene RPS28,−0.80
same,mRNA,PC3 cells; gene RPS28,0.01
same,mRNA,PC3 cells; gene RPS29,−0.01
same,TrlEff,PC3 cells; gene SLC25A5,−0.30
same,mRNA,PC3 cells; gene TKT,0.02
same,TrlEff,PC3 cells; gene VIM,−0.40
